Measurements taken from PMC11243320, “Tailoring Fibroblast-Activation Protein Targeting for Theranostics: A Comparative Preclinical Evaluation of the ^68Ga- and ^177Lu-Labeled Monomeric and Dimeric Fibroblast-Activation Protein Inhibitors DOTA.SA.FAPi and DOTAGA.(SA.FAPi)2” (Molecules, 2024).
Values belong to the compound of their own block, whether it stands above or below them.

What was measured:
[1] = tested on: healthy mice; test: Biodistribution in healthy male and female mice; assay type: in vivo; conditions: 1 h p.i.
Experimental: Two groups of healthy mice (males and females; n = 4/group) were injected with 10 pmol of [^68Ga]Ga-DOTA.SA.FAPi (0.08–0.1 MBq) in 100 µL of NaCl 0.9% and biodistribution studies were conducted at 1 h p.i. (Supplemental Data).

[2] = tested on: CAFs; test: Externalization studies in CAFs; assay type: cell-based, human; conditions: after 24 h at 37 °C
Experimental: For saturation studies, CAFs were incubated with increasing concentrations of the radiotracers (0.1–10 nM). For internalization studies, approximately 2.5 pmol of the radiotracers were added to CAFs followed by incubation for 15, 30, 60, 90, 120, 180 and 240 min for the ^68Ga-labeled or 30, 60, 120, 240 and 360 min for the ^177Lu-labeled radiotracers at 37 °C, 5% CO2. For the externalization studies, approximately 2.5 pmol of the ^177Lu-labeled radiotracers were added to CAFs followed by incubation for 2 h at 37 °C, 5% CO2. Afterward, the amount of the externalized activity from the CAFs was determined at 0, 10, 20, 30, 60, 120, 240, and 1440 min (Supplemental Data).
Saturation Binding Studies […]
At each time point, the internalization was stopped by putting the plates on ice, removing the me-dium, and washing the cells twice with ice-cold PBS. […] The radioactivity of the culture medium, the receptor bound, and the internal-ized fractions were measured in a γ-counter.
The externalization rate of [177Lu]Lu-DOTA.SA.FAPi and [177Lu]Lu-DOTAGA.(SA.FAPi)2 was studied af-ter CAFs were incubated for 2 h with 2.5 pmol/well of each 177Lu-lebeled radioligand. […] The radioactivity of the culture medium, the receptor bound , the internalized and the externalized fractions were measured in a γ -counter. […]

Biodistribution Blood ([1]; healthy female mice): 13.5 ± 4.1 % IA/g
Biodistribution Bone ([1]; healthy female mice): 5.0 ± 0.2 % IA/g
Biodistribution Heart ([1]; healthy female mice): 5.1 ± 0.9 % IA/g
Biodistribution Intestine ([1]; healthy female mice): 3.0 ± 0.3 % IA/g
Biodistribution Kidney ([1]; healthy female mice): 5.0 ± 0.7 % IA/g
Biodistribution Liver ([1]; healthy female mice): 3.3 ± 0.4 % IA/g
Biodistribution Lung ([1]; healthy female mice): 4.3 ± 1.6 % IA/g
Biodistribution Muscle ([1]; healthy female mice): 6.3 ± 3.4 % IA/g
Biodistribution Pancreas ([1]; healthy female mice): 7.6 ± 2.6 % IA/g
Biodistribution Spleen ([1]; healthy female mice): 2.7 ± 0.7 % IA/g
Biodistribution Stomach ([1]; healthy female mice): 1.7 ± 0.04 % IA/g
Biodistribution Blood ([1]; healthy male mice): 8.5 ± 0.1 % IA/g
Biodistribution Bone ([1]; healthy male mice): 1.5 ± 0.9 % IA/g
Biodistribution Heart ([1]; healthy male mice): 3.1 ± 0.04 % IA/g
Biodistribution Intestine ([1]; healthy male mice): 3.1 ± 0.2 % IA/g
Biodistribution Kidney ([1]; healthy male mice): 3.5 ± 0.4 % IA/g
Biodistribution Liver ([1]; healthy male mice): 2.3 ± 0.1 % IA/g
Biodistribution Lung ([1]; healthy male mice): 2.7 ± 0.6 % IA/g
Biodistribution Muscle ([1]; healthy male mice): 2.0 ± 0.3 % IA/g
Biodistribution Pancreas ([1]; healthy male mice): 8.6 ± 0.1 % IA/g
Biodistribution Spleen ([1]; healthy male mice): 2.3 ± 0.1 % IA/g
Biodistribution Stomach ([1]; healthy male mice): 2.0 ± 0.3 % IA/g
SMILES: N#C[C@@H]1CC(F)(F)CN1C(=O)CNC(=O)c1ccnc2ccc(OCCCCNc3c(NCCNC(=O)CN4CCN(CC(=O)[O-])CCN(CC(=O)[O-])CCN(CC(=O)[O-])CC4)c(=O)c3=O)cc12.[68Ga+3] [[^68Ga]Ga-DOTA.SA.FAPi]

SMILES: N#C[C@@H]1CC(F)(F)CN1C(=O)CNC(=O)c1ccnc2ccc(OCCCCNc3c(NCCNC(=O)CN4CCN(CC(=O)[O-])CCN(CC(=O)[O-])CCN(CC(=O)[O-])CC4)c(=O)c3=O)cc12.[177Lu+3] [[^177Lu]Lu-DOTA.SA.FAPi]
Total internalized activity released from the CAFs into the medium [2]: more than 93%
Total internalized activity remaining in the CAFs [2]: 7%
